Assay results from patent US20220257601A1, “INHIBITORS OF PRC1 FOR TREATMENT OF CANCER” (Board of Regents, The University of Texas System, priority 2019, published 2022).
Where “and” joins values, the source holds several entries; their conditions need not be identical. Equal entries are not always repeated. Where two headings read alike, the source gives them in different places.

Experiments:
[1] = molecular target: T1, RNF2-PRC1 complex (Homo sapiens, UniProt Q99496); test: In vitro ubiquitination assay (cell-free system); format: biochemical; conditions: data not shown
T1 construct: RNF2-PRC1 complex was immunoprecipitated from one 15 cm plate of PC3 cells; endogenous in cells; host or cells: PC3 cells (immunoprecipitate)
T1 sequence (Q99496 2-336 limits assumed): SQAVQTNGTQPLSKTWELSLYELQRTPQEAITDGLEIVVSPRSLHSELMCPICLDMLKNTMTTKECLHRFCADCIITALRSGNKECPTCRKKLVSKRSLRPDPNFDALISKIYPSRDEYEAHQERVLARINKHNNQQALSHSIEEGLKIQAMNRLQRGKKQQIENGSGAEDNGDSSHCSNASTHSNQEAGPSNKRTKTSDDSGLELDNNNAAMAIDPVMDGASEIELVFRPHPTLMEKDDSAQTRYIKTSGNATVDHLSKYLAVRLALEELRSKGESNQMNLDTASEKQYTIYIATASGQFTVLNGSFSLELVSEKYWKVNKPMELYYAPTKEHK
Experimental: RNF2-PRC1 complex was immunoprecipitated from one 15 cm plate of PC3 cells. After extensive washing, the complex was pre-incubated with drugs at 4° C. for 30 minutes. UBCH5c, E1, were from Boston Biochem. Reactions were performed in 30 μl of ubiquitilation buffer (50 mM Tris, pH 7.5, 2.5 mM MgCl2, 0.5 mM DTT) containing ubiquitin-activating enzyme 100 ng E1, 200 ng UBCH5c, 10 μg ubiquitin, 0.2 mM ATP, 1 μg H2A, and the indicated PNF2-PRC1 complex. After incubated at 37° C. for 60 min, the reactions were then stopped by the addition of Laemmli sample buffer, and proteins were resolved by SDS-PAGE and immunoblotted using H2A antibody.

[2] = tested on: RNF2 target genes (CCL2, CXCL1, LGR5, NTS, ATF3); test: Quantitative RT-PCR of RNF2 target genes in PC3 or RM1 cells; format: cell-based; conditions: 0.5 and 1.0 μM; compared with RNF2 silencing
Experimental: (§1) For immunoblotting, cells were washed with PBS and lysed in RIPA buffer (50 mM Tris-HCl pH 7.4, 150 mM NaCl, 1 mM EDTA, 1% Triton X-100, 1% sodium deoxycholate, and 0.1% SDS) supplemented with protease inhibitors (Calbiochem) and phosphatase inhibitors (PhosSTOP, Roche Life Science). Protein concentrations were measured by using the DC Protein Assay. Total RNA was extracted using the RNeasy Mini kit coupled with RNase-free DNase set (Qiagen) and reverse transcribed with SuperScript III First-Strand Synthesis SuperMix (Invitrogen). cDNA corresponding to approximately 10 ng of starting RNA was used for one reaction. Q-PCR was performed with Taqman Gene Expression Assay (Applied Biosystems). All quantifications were normalized to endogenous GAPDH.

[3] = tested on: PC3 cells; test: Bone metastasis after intracardiac injection of PC3 cells in male nude mice; format: in vivo, mouse; conditions: for Outgrowth of macroscopic bone lesions (bioluminescent imaging): data not shown
Experimental: (§2) For localized tumor growth assay, cells were resuspended in 100 μl PBS with Matrigel in 1:1 ratio and subcutaneously injected into both rear flanks. The volume of the s.c. xenograft was calculated as V=L×W^2/2, where L and W stand for tumor length and width, respectively. For experimental metastasis assays, cells were resuspended in 100 μl 1×PBS and intracardially injected into the left ventricle with a 26 G tuberculin syringe. For bone colonization, RM1 cells were resuspended 100 μl 1×PBS and injected into the intra-femoral artery. Metastatic burden was detected through non-invasive bioluminescence imaging of experimental animals using an IVIS Spectrum.
(§3) To investigate the effect of drug treatment, compounds or antibodies were delivered twice every week or every three days through i.p. injection except BLZ945, which was delivered orally. Bioluminescence signal was measured using the ROI tool in Living Image 4.4 software (PerkinElmer).
(§4) For bioluminescent imaging, mice were anesthetized and injected with 1.5 mg of D-luciferin retro-orbitally at the indicated times. Animals were imaged in an IVIS® 100 chamber within 5 min after D-luciferin injection, and data were recorded using LIVING IMAGE® software (Xenogen). To measure bone colonization after intracardiac injection, photon flux was calculated by using the ROI tool in the LIVING IMAGE® software. Bone metastases were further confirmed by X-Ray imaging. Mice were anesthetized with ketamine (100 mg/kg) and xylazine (10 mg/kg), placed on digital X ray Film (Scan X) and exposed at 25 kV for 15 s using a Faxitron instrument (Model MX-20; Faxitron Corp. Buffalo, Ill.).
(§5) The tissue sections were deparaffinized with EZPrep buffer (Ventana Medical Systems), antigen retrieval was performed with CC1 buffer (Ventana Medical Systems). Sections were blocked for 30 minutes with Background Buster solution (Innovex), followed by avidin-biotin blocking for 8 minutes (Ventana Medical Systems) (except for slides stained with CD4 and NKp46 antibodies). Sections were incubated with anti-RNF2, anti-BMI1, anti-Ki67, anti-Cleaved Caspase 3, anti-CD11b, anti-CD68, anti-CD8, anti-CD31, anti-B220, anti-FoxP3, anti-CD4, or anti-NKp46 for 5 hours, followed by 60 minutes incubation with biotinylated horse anti-rabbit IgG at 1:200 dilution (for Ki67, Cleaved Caspase 3, CD11b and CD8) or biotinylated goat anti-rat IgG at 1:200 dilution (for CD31, B220 and FoxP3) or biotinylated horse anti-goat IgG at 1:200 dilution (for CD4 and NKp46). The detection was performed with DAB detection kit (Ventana Medical Systems) according to manufacturer instruction. Slides were counterstained with hematoxylin and coverslipped with PERMOUNT™ (Fisher Scientific).

[4] = tested on: PC3 cells; test: Tumor sphere assay, PC3 cells; format: cell-based, human; conditions: for IC50: Homo sapiens, PC-3, read-out: Inhibition of sphere formation ability normalized to control groups, IC50
Experimental: (§6) Single cell suspensions of LNCaP, DU145, PC3, PC3M or RM1 cells (1,000 cells/ml) were plated on ultra-low attachment plates and cultured in serum-free PrEGM (Lonza) supplemented with 1:50 B27, 20 ng/ml bFGF and 40 ng/ml EGF for 10 days. Tumor spheres were visualized under phase contrast microscope, photographed, and counted. For serial passage, tumor spheres were collected using 70-μm cell strainers and dissociated with ACCUTASE® for 30 min at 37° C. to obtain single-cell suspensions.

[5] = tested on: Pten^pc−/−Smad4^pc−/− cells; test: Multi-organ metastasis in FVB/NJ mice inoculated intracardially with Pten pc-/- Smad4 pc-/- cells; format: in vivo, mouse; conditions: for Numbers of TAMs and Tregs in bone lesions: on-treatment staining of bone lesions
Experimental: as §2, §3, §4, §5
For iNOS/CD68 or Arg1/CD68 staining, first, slides were incubated with anti-iNOS or anti-Arg1 for 5 hours, followed by 60 minutes incubation with biotinylated goat anti-rabbit IgG at 1:200 dilution. The detection was performed with Streptavidin-HRP D (part of DABMap kit, Ventana Medical Systems), followed by incubation with Tyramide Alexa Fluor 488 prepared according to manufacturer instruction with predetermined dilutions. Next, sections were incubated with anti-CD68 for 5 hours, followed by 60 minutes incubation with biotinylated goat anti-rabbit IgG at 1:200 dilution. The detection was performed with Streptavidin-HRP D (part of DABMap kit, Ventana Medical Systems), followed by incubation with Tyramide Alexa CF 594 prepared according to manufacturer instruction with predetermined dilutions. After staining slides were counterstained with DAPI for 10 min and coverslipped with MOWIOL®.
At the end point in vivo experiment, blood and bone marrow cells were collected from each mouse and treated with Red Blood Cell lysis buffer for 5 minutes. Cells were then washed once with RPMI supplemented 2% FBS, stained with indicated antibodies and analyzed by FACS.

[6] = molecular target: T2, PRC1 (Homo sapiens, UniProt Q99496); test: Inhibition of H2Aub (monoubiquitylation of histone H2A) in PC3 cells; format: cell-based
T2 construct: PC3 cells were exposed to drugs for the indicated hours; endogenous in cells; host or cells: PC3 cells
T2 sequence (Q99496 2-336 limits assumed): T1 sequence (Q99496 2-336 limits assumed)
Experimental: as §1
PC3 cells were exposed to drugs for the indicated hours, then harvested using […] EDTA in PBS, and washed once with cold PBS. Nuclear extracts were prepared and histones were extracted using 0.4N sulfuric acid. H2A or ubH2A was measured using the indicated antibodies.

[7] = tested on: PC3 cells; test: Cell growth under standard culture conditions; format: cell-based, human; conditions: concentrations up to 1 μM, data not shown
Experimental: Control and RNF2-silenced PC3 cells were plated at 1×10^3 per well in 96 well plates for 24 hours. After 24 hours, cells were incubated in 0.5 mg/ml MTT (Invitrogen) for 2 h at 37° C. MTT crystals were dissolved in DMSO and absorbance was measured in a plate reader at 540 nm.
The candidate library was provided by the Organic Synthesis Core Facility from MSKCC. The testing concentration of candidate compounds on PC3 cells was 1 μM. RNF2 target gene expression change was used as a readout for the first round screen. Cell viability, tumor sphere formation assay and histone modification change were then used to further confirm the activity of the candidate compound.

[8] = tested on: RM1 cells; test: Metastasis in C57BL/6 mice injected with RM1 cells; format: in vivo, mouse
Experimental: as §2, §3
For bioluminescent imaging, mice were anesthetized and injected with 1.5 mg of D-luciferin retro-orbitally at the indicated times. Animals were imaged in an IVIS® 100 chamber within 5 min after D-luciferin injection, and data were recorded using LIVING IMAGE® software (Xenogen). To measure bone colonization after intracardiac injection, photon flux was calculated by using the ROI tool in the LIVING IMAGE® software. […]

[9] = tested on: RM1 cells; test: Tumor sphere assay, RM1 cells; format: cell-based, mouse; conditions: data not shown
Experimental: as §6

[10] = tested on: PC3 cells; test: Gene expression changes and pathway analysis compared with RNF2 silencing; format: cell-based, human; conditions: compared with 2 and RNF2 silencing; data not shown
Experimental: Data were analyzed in Partek. Total RNAs were isolated from PC3 cells. Libraries were prepared suing the standard methodology from Illumina. Generated libraries were run on a HiSeq2500 system. Raw reads were quality-checked and subsequently mapped to the human genome (hg19) using Tophat2 (2.2.4) using default settings (Langmead and Salzberg, 2012). Differential gene expression was analyzed using the DESeq2 (1.8.1) package in R using default settings (Love et al., 2014). Gene set enrichment analysis (GSEA) (Subramanian et al., 2005) was performed on a pre-ranked gene list that generated based on the gene expression changes between the RNF2 knockdown and control cells. […] Heatmap analysis was performed to show the gene expression patterns between the RNF2 knockdown and control repeats, using heatmap3 R package with ward2 as distance function. Gene expressions in the heatmap were transformed in logarithm scale and normalized accordingly.

[11] = PC3 cells, titration experiments
[12] = bone metastatic sites, Pten/Smad4 and RM1 models
[13] = PC3 cells, read-out: Inhibition of H2Aub normalized to control groups, IC50

## Nc1ccc(CCN2C(=O)c3c(F)c(F)c(F)c(F)c3C2=O)cc1 [Compound 1]
[1]
  Inhibition of RNF2-mediated H2AUb: inhibited RNF2-mediated H2AUb in a dose-dependent fashion
[2]
  Downregulation or upregulation of key PRC1 targets (RT-qPCR): as effectively as silencing of RNF2
[3]; 25 mg/kg, treatment from day 7, 2×/week
  Formation of bone metastases: prevented formation of bone metastases
[3]; 25 mg/kg, treatment from day 21, 2 weeks of treatment
  Expansion of bone macrometastases: significant suppression of their expansion
[3]; bone sections of treated mice
  Nuclear H2AUb levels in bone sections (IHC): substantially decreases
  Secretion of CCL2 in the tumor microenvironment (IHC): substantially decreases
[4]; PC3 cells
  IC50: 130 nM
[4]; [11]
  Inhibition of sphere formation, fold more efficient as compared to 2: > 7.5 fold
[5]; 1 at 10 mg/kg, DCIT = anti-CTLA4 + anti-PD-1
  Multi-organ metastasis (bioluminescent imaging): only inhibited this process
[5]; [12]
  Number of M1-like macrophages: increases the number of M1-like macrophages
  Percentage of M2-like TAMs (CD68 and Arg1/iNOS double staining): dramatically decreases the percentage of M2-like TAMs
[5]; Pten/Smad4 and RM1 models
  Numbers of TAMs and Tregs in bone lesions: reduces the numbers of TAMs and Tregs
[5]; peripheral blood and bone marrow
  Numbers of MDSCs and TAMs (FACS): reduces the numbers of MDSCs and TAMs
[6]; [11]
  Inhibition of H2AUb, fold more efficient as compared to 2: > 7.5 fold
[6]; [13]
  IC50: 470 nM
[6]; data not shown
  Inhibition of PRC1 activity relative to 3 (PTC209): more effectively as compared to 3
[6]; inhibitor of RNF2, read-out: Apparent IC50 in cells and on target
  IC50: ~470 nM and ~500 nM
[7]
  Inhibition of cell growth: did not inhibit cell growth
[8]; C57BL/6 mice, data not shown
  Outgrowth of bone, brain and liver metastases: inhibited the outgrowth of bone, brain and liver metastases
[8]; treated mice
  FACS analysis of leukocytes from peripheral blood: significant decrease of macrophages and increase of T cells and NK cells
[9]
  Inhibition of tumor sphere: inhibited tumor sphere to a similar extent
[10]
  Gene expression changes in cancer-relevant pathways: changes larger than those caused by 2 and by RNF2 silencing

## O=C1C(=Cc2cccnc2)C(=O)c2ccccc21 [Compound 2, 2-(pyridin-3-ylmethylene)-1H-indene-1,3(2H)-dione, reference compound]
[4]; PC3 cells
  IC50: 1050 nM
[4]; inhibited only at this concentration
  Concentration at which growth of oncospheres was inhibited: 25 µM
[5]; [12]
  Number of M1-like macrophages: increases the number of M1-like antigen presentation-competent macrophages
[5]; Pten/Smad4 and RM1 models
  Numbers of TAMs and Tregs in bone lesions: suppresses the recruitment of total TAMs
[6]
  Concentration at which PRC1 activity was inhibited, assessed by monoubiquitylation of histone H2A: 25 µM
[6]; [13]
  IC50: 3520 nM

## Cc1ccc2c(c1)C1(CCN(CCc3nc(-c4ccccc4)oc3C)CC1)OC(=O)N2 [RS504393, reference compound]
[3]
  Outgrowth of macroscopic bone lesions (bioluminescent imaging): effectively inhibit the outgrowth of macroscopic bone lesions

## CNC(=O)c1cc(Oc2ccc3nc(N[C@@H]4CCCC[C@H]4O)sc3c2)ccn1 [BLZ945, reference compound]
[3]
  Outgrowth of macroscopic bone lesions (bioluminescent imaging): effectively inhibit the outgrowth of macroscopic bone lesions
